From US8742110B2, “Spiroxazolidinone compounds” (Merck Sharp & Dohme Corp., priority 2010, dated 2014)
Where a name gives a salt, the structure may show the parent alone.

The compounds below were run against SSTR5 (Homo sapiens (Human), UniProt P35346) (assay: SSTR5 binding assay). Conditions: CHO-K1 membranes expressing cloned human SSTR5.
Description: The receptor-ligand binding assays of all 5 subtype of SSTRs were performed with membranes isolated from Chinese hamster ovary (CHO)-K1 cells stably expressing the cloned human somatostatin receptors in 96-well format as previous reported.
The stable cell lines for SSTR1-SSTR5 were developed by stably transfecting with DNA for all five SSTRs using Lipofectamine. […] The assay buffer consisted of 50 mM TrisHCl (pH 7.8) with 1 mM EGTA, […] MgCl2, leupeptin (10 μg/mL), pepstatin (10 μg/mL), bacitracin (200 μg/mL), and aprotinin (0.5 μg/mL). CHO-K1 cell membranes, radiolabeled somatostatin, and unlabeled test compounds were resuspended or diluted in this assay buffer. Unlabeled test compounds were examined over a range of concentrations from 0.01 nM to 10,000 nM.
Compounds exemplified were tested in the SSTR5 binding assay.

Chain of SSTR5 (P35346 whole entry): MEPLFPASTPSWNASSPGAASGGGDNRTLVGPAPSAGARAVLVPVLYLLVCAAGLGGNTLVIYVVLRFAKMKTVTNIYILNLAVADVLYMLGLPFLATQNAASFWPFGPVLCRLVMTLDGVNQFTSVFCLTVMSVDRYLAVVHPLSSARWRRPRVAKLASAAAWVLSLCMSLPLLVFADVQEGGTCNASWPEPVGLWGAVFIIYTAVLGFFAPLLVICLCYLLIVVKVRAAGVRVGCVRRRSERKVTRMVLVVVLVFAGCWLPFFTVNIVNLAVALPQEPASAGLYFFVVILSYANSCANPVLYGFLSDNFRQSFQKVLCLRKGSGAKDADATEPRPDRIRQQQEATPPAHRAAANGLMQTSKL

Compound	IC50
Cc1cc(-c2ccc(F)nc2)c(CN2CCC3(CC2)CN(c2ccc(C(=O)O)cc2)C(=O)O3)cc1Cl [Example 4-25, 4-{8-[5-Chloro-2-(6-fluoropyridin-3-yl)-4-methylbenzyl]-2-oxo-1-oxa-3,8-diazaspiro[4.5]dec-3-yl}benzoic acid, TFA salt]	1.31 nM
COc1ccc2c(CN3CCC4(CC3)CN(c3ccc(C(=O)O)cc3)C(=O)O4)nn(-c3ccccc3)c2c1 [Example 6-13, 4-{8-[(6-Methoxy-1-phenyl-1H-indazol-3-yl)methyl]-2-oxo-1-oxa-3,8-diazaspiro[4.5]dec-3-yl}benzoic acid, TFA salt]	185 nM
CCOc1ccc(-c2ccc(F)c(F)c2F)c(CN2CCC3(CC2)CN(c2ccc(C(=O)O)cc2)C(=O)O3)n1 [Example 4-2, 4-(8-{[6-Ethoxy-3-(2,3,4-trifluorophenyl)pyridin-2-yl]methyl}-2-oxo-1-oxa-3,8-diazaspiro[4.5]dec-3-yl)benzoic acid, TFA salt]	13.2 nM
CCOc1cc(CN2CCC3(CC2)CN(c2ccc(C(=O)O)cc2C)C(=O)O3)cc(OCC)c1-c1ccc(F)cc1 [Example 3-16, 4-{8-[(2,6-Diethoxy-4′-fluorobiphenyl-4-yl)methyl]-2-oxo-1-oxa-3,8-diazaspiro[4.5]dec-3-yl}-3-methylbenzoic acid, TFA salt]	1.18 nM
CCOc1cc(CN2CCC3(CC2)CN(c2ccc(C(=O)O)cc2)C(=O)O3)cc2c(OC)ccc(Cl)c12 [Example 5-7, 4-{8-[(5-Chloro-4-ethoxy-8-methoxynaphthalen-2-yl)methyl]-2-oxo-1-oxa-3,8-diazaspiro[4.5]dec-3-yl}benzoic acid, TFA salt]	0.233 nM
CCOc1cc(CN2CCC3(CC2)CN(c2cncc(C(=O)O)c2)C(=O)O3)cc(OCC)c1-c1ccc(F)cc1 [Example 3-5, 5-{8-[(2,6-Diethoxy-4′-fluorobiphenyl-4-yl)methyl]-2-oxo-1-oxa-3,8-diazaspiro[4.5]dec-3-yl}pyridine-3-carboxylic acid, TFA salt]	2.12 nM
CC(C)(C)Cn1nc(CN2CCC3(CC2)CN(c2ccc(C(=O)O)cc2)C(=O)O3)c2cc(F)ccc21 [Example 6-10, 4-(8-{[1-(2,2-Dimethylpropyl)-5-fluoro-1H-indazol-3-yl]methyl}-2-oxo-1-oxa-3,8-diazaspiro[4.5]dec-3-yl)benzoic acid, TFA salt]	137 nM
CC1(C)Cc2cc(CN3CCC4(CC3)CN(c3ccc(C(=O)O)cc3)C(=O)O4)ccc2O1 [Example 5-18, 4-{8-[(2,2-Dimethyl-2,3-dihydro-1-benzofuran-5-yl)methyl]-2-oxo-1-oxa-3,8-diazaspiro[4.5]dec-3-yl}benzoic acid, TFA salt]	45.3 nM
CCOc1cc(CN2CCC3(CC2)CN(c2ccc(C(=O)O)cn2)C(=O)O3)cc(OCC)c1-c1ccc(F)cc1 [Example 3-11, 6-{8-[(2,6-Diethoxy-4′-fluorobiphenyl-4-yl)methyl]-2-oxo-1-oxa-3,8-diazaspiro[4.5]dec-3-yl}pyridine-3-carboxylic acid, TFA salt]	0.941 nM
COc1ccc2c(CN3CCC4(CC3)CN(c3ccc(C(=O)O)cc3)C(=O)O4)n[nH]c2c1 [Example 6-2, 4-{8-[(6-Methoxy-1H-indazol-3-yl)methyl]-2-oxo-1-oxa-3,8-diazaspiro[4.5]dec-3-yl}benzoic acid, TFA salt]	1740 nM
CCOc1ccc(-c2ccc(F)cc2F)c(CN2CCC3(CC2)CN(c2ccc(C(=O)O)cc2)C(=O)O3)c1 [Example 4-3, 4-{8-[(4-Ethoxy-2′,4′-difluorobiphenyl-2-yl)methyl]-2-oxo-1-oxa-3,8-diazaspiro[4.5]dec-3-yl}benzoic acid, TFA salt]	0.49 nM
CCOc1ccc(-c2nn(-c3ccccc3)cc2CN2CCC3(CC2)CN(c2ccc(C(=O)O)cc2)C(=O)O3)cc1 [Example 1-12, 4-(8-{[3-(4-Ethoxyphenyl)-1-phenyl-1H-pyrazol-4-yl]methyl}-2-oxo-1-oxa-3,8-diazaspiro[4.5]dec-3-yl)benzoic acid, TFA salt]	5.32 nM
O=C(O)c1ccc(N2CC3(CCN(Cc4c(Cc5cc(F)c(F)cc5F)nn(-c5ccccc5)c4Cl)CC3)OC2=O)cc1 [Example 1-47, 4-(8-{[5-Chloro-1-phenyl-3-(2,4,5-trifluorobenzyl)-1H-pyrazol-4-yl]methyl}-2-oxo-1-oxa-3,8-diazaspiro[4.5]dec-3-yl)benzoic acid, TFA salt]	79 nM
CCCn1nc(Cc2cc(F)c(F)cc2F)c(CN2CCC3(CC2)CN(c2ccc(C(=O)O)cc2)C(=O)O3)c1Cl [Example 1-46, 4-(8-{[5-Chloro-1-propyl-3-(2,4,5-trifluorobenzyl)-1H-pyrazol-4-yl]methyl}-2-oxo-1-oxa-3,8-diazaspiro[4.5]dec-3-yl)benzoic acid, TFA salt]	40.9 nM
CCOc1cc(CN2CCC3(CC2)CN(c2ccc(C(=O)O)cc2)C(=O)O3)c(-c2cc(F)c(F)cc2F)cc1C [Example 4-11, 4-{8-[(4-Ethoxy-2′,4′,5′-trifluoro-5-methylbiphenyl-2-yl)methyl]-2-oxo-1-oxa-3,8-diazaspiro[4.5]dec-3-yl}benzoic acid, TFA salt]	0.152 nM
CCOc1cc(CN2CCC3(CC2)CN(c2ccc(C(=O)O)cc2Cl)C(=O)O3)cc(OCC)c1-c1ccc(F)cc1 [Example 3-19, 3-Chloro-4-{8-[(2,6-diethoxy-4′-fluorobiphenyl-4-yl)methyl]-2-oxo-1-oxa-3,8-diazaspiro[4.5]dec-3-yl}benzoic acid, TFA salt]	0.359 nM
CCOc1cc(CN2CCC3(CC2)CN(c2ccc(C(=O)O)cc2)C(=O)O3)c(-n2cc(C)cn2)cc1C [Example 4-28, 4-{8-[5-Ethoxy-4-methyl-2-(4-methyl-1H-pyrazol-1-yl)benzyl]-2-oxo-1-oxa-3,8-diazaspiro[4.5]dec-3-yl}benzoic acid, TFA salt]	0.395 nM
O=C(O)c1ccc(N2CC3(CCN(Cc4nn(Cc5ccc(Cl)cc5)cc4-c4ccc(F)c(F)c4F)CC3)OC2=O)cc1 [Example 2-3, 4-(8-{[1-(4-Chlorobenzyl)-4-(2,3,4-trifluorophenyl)-1H-pyrazol-3-yl]methyl}-2-oxo-1-oxa-3,8-diazaspiro[4.5]dec-3-yl)benzoic acid, TFA salt]	89.3 nM
O=C(O)c1ccc(N2CC3(CCN(Cc4nc(-c5ccccc5)oc4-c4ccc(F)c(Cl)c4)CC3)OC2=O)cc1 [Example 6-27, 4-(8-{[5-(3-Chloro-4-fluorophenyl)-2-phenyl-1,3-oxazol-4-yl]methyl}-2-oxo-1-oxa-3,8-diazaspiro[4.5]dec-3-yl)benzoic acid, TFA salt]	119 nM
O=C(O)c1ccc(N2CC3(CCN(Cc4cnn(C5CCCCC5)c4-c4cc(F)c(F)cc4F)CC3)OC2=O)cc1 [Example 2-8, 4-(8-{[1-Cyclohexyl-5-(2,4,5-trifluorophenyl)-1H-pyrazol-4-yl]methyl}-2-oxo-1-oxa-3,8-diazaspiro[4.5]dec-3-yl)benzoic acid, TFA salt]	10.4 nM
O=C(O)c1ccc(N2CC3(CCN(Cc4cn(-c5ccccc5)nc4-c4ccc(OC(F)(F)F)cc4)CC3)OC2=O)cc1 [Example 1-27, 4-[2-Oxo-8-({1-phenyl-3-[4-(trifluoromethoxy)phenyl]-1H-pyrazol-4-yl}methyl)-1-oxa-3,8-diazaspiro[4.5]dec-3-yl]benzoic acid, TFA salt]	12.9 nM
Cc1cc(C(=O)O)ccc1N1CC2(CCN(Cc3cn(C(C)(C)C)nc3-c3ccc(F)c(F)c3F)CC2)OC1=O [Example 1-37, 4-(8-{[1-tert-Butyl-3-(2,3,4-trifluorophenyl)-1H-pyrazol-4-yl]methyl}-2-oxo-1-oxa-3,8-diazaspiro[4.5]dec-3-yl)-3-methylbenzoic acid, TFA salt]	1.59 nM
CCOc1cc(CN2CCC3(CC2)CN(c2ccc(C(=O)O)cc2)C(=O)O3)cc2c(OCC)cccc12 [Example 5-3, 4-{8-[(4,8-Diethoxynaphthalen-2-yl)methyl]-2-oxo-1-oxa-3,8-diazaspiro[4.5]dec-3-yl}benzoic acid, TFA salt]	0.98 nM
CC(C)n1nc(CN2CCC3(CC2)CN(c2ccc(C(=O)O)cc2)C(=O)O3)c2ccc(C#N)cc21 [Example 6-9, 4-(8-{[6-Cyano-1-(propan-2-yl)-1H-indazol-3-yl]methyl}-2-oxo-1-oxa-3,8-diazaspiro[4.5]dec-3-yl)benzoic acid, TFA salt]	121 nM
CCOc1cc(CN2CCCC3(CC2)CN(c2ccc(C(=O)O)cc2)C(=O)O3)cc(OCC)c1-c1ccc(F)cc1 (stereo not shown) [Example 2-12, 4-{8-[(2,6-Diethoxy-4′-fluorobiphenyl-4-yl)methyl]-2-oxo-1-oxa-3,8-diazaspiro[4.6]undec-3-yl}benzoic acid, TFA salt]	4.93 nM
CCCCn1cc(CN2CCC3(CC2)CN(c2ccc(C(=O)O)cc2)C(=O)O3)c(Cc2cc(F)c(F)cc2F)n1 [Example 1-40, 4-(8-{[1-Butyl-3-(2,4,5-trifluorobenzyl)-1H-pyrazol-4-yl]methyl}-2-oxo-1-oxa-3,8-diazaspiro[4.5]dec-3-yl)benzoic acid, TFA salt]	8.34 nM
CCCn1cc(-c2ccc(F)c(F)c2F)c(CN2CCC3(CC2)CN(c2ccc(C(=O)O)cc2)C(=O)O3)n1 [Example 2-6, 4-(2-Oxo-8-{[1-propyl-4-(2,3,4-trifluorophenyl)-1H-pyrazol-3-yl]methyl}-1-oxa-3,8-diazaspiro[4.5]dec-3-yl)benzoic acid, TFA salt]	281 nM
CCOc1cc(CN2CCC3(CC2)CN(c2ccc(C(=O)O)c(OC)c2)C(=O)O3)cc(OCC)c1-c1ccc(F)cc1 [Example 3-20, 4-{8-[(2,6-Diethoxy-4′-fluorobiphenyl-4-yl)methyl]-2-oxo-1-oxa-3,8-diazaspiro[4.5]dec-3-yl}-2-methoxybenzoic acid, TFA salt]	0.129 nM
